Source: patent publication EP0107907A2, “Improvements in or relating to immunomodulating agents” (ELI LILLY AND COMPANY, priority 1982, dated 1984)

Columns and labels:
peritoneal macrophages = experiment: In vivo macrophage activation (peritoneal macrophages from treated mice, cytotoxicity against P815 cells); set-up: species or system BALB/c mice
Protocol: In another procedure, peritoneal macrophages were harvested after 3, 5, or 10 days from composition- treated mice by peritoneal lavage and purified by adherence on plastic. Approximately 4 x 10^5 macrophages in 16-mm wells were overlaid with 4 x 10^4 P815 cells contained in 2 ml of Roswell Park Memorial Institute.1640 Medium supplemented with 20 percent fetal calf serum. All cultures were maintained in a humidified, 5-percent COZ-in-air incubator at 37°C., and cytotoxicity was assessed at 48 hours on the basis of viable cell counts in a hemocytometer. Triplicate cultures were maintained for each group; the mean cell count and standard error (S.E.) were calculated. […] The ratio of macrophages to target cells was approximately 10:1 at the beginning of each experiment. The percentage of growth inhibition of P815 cells due to composition-mediated macrophage activation was calculated by comparison to that of P815 cells grown in the presence of macrophages from buffer- treated animals.

L. monocytogenes EDG = experiment: Standard agar-diffusion test, antibacterial; format: cell-based
Description: Compound 1 was negative in the Limulus Lysate Test for endotoxin and was devoid of intrinsic in vitro antibacterial activity against L. monocytogenes EDG in a standard agar-diffusion test.

## C=C(CP(=O)(O)O)NC(=O)[C@H](CC(C)C)NC(=O)CN [Compound 1, N^2-glycyl-N-(1-methylene-2-phosphonoethyl)leucinamide]
Peritoneal macrophages; dose 10 mg/kg, Day 0
  Percent Macrophage Cytotoxicity at Day: 0%
Peritoneal macrophages; dose 10 mg/kg, Day 3
  Percent Macrophage Cytotoxicity at Day: 8%
Peritoneal macrophages; dose 10 mg/kg, Day 5
  Percent Macrophage Cytotoxicity at Day: 20%
Peritoneal macrophages; dose 10 mg/kg, Day 10
  Percent Macrophage Cytotoxicity at Day: 0%
Peritoneal macrophages; dose 100 mg/kg, Day 0
  Percent Macrophage Cytotoxicity at Day: 0%
Peritoneal macrophages; dose 100 mg/kg, Day 3
  Percent Macrophage Cytotoxicity at Day: 43%
Peritoneal macrophages; dose 100 mg/kg, Day 5
  Percent Macrophage Cytotoxicity at Day: 25%
Peritoneal macrophages; dose 100 mg/kg, Day 10
  Percent Macrophage Cytotoxicity at Day: 0%
L. monocytogenes EDG
  intrinsic in vitro antibacterial activity: devoid
